In publication PMC9773825:

Experiment: not told

CON(C)Cc1ccc(O)c2c1CC1CC3C(N(C)C)C(O)=C(C(N)=O)C(=O)C3(O)C(O)=C1C2=O (stereo not drawn)
log partition chloroform / water/buffer (pH 3.5, 25): 1.14 log10 | log partition octanol / water/buffer (pH 3.5, 25): −0.30 log10 | log partition chloroform / water/buffer (pH 5.5, 25): 1.48 log10 | log partition octanol / water/buffer (pH 5.5, 25): −0.16 log10 | log partition chloroform / water/buffer (pH 7.4, 25): 1.46 log10 | log partition octanol / water/buffer (pH 7.4, 25): −0.26 log10
